assay: recombinant barcode read abundance after kanamycin selection (control-corrected) (log10(CPM+1)); higher = more efficient recombination; sequences stand for … in AGTGCAGAGAAAATCGGCCAGTTTTCTCTGCCTGCAGTCCGCATGCCGT…AGATTTATGCAGCGGACTGCCTTTCTCCCAAAGTGATAAACCGGACAGTATCATGGACCGGTTTTCCCGGTAATCCGTATTTGCAAGGTTGGTTTCACT; site = the 11-nt target
Procedure, shortened: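 In a pooled screen in E. coli, targets were paired with target-binding loops of the IS621 bridge RNA. Each oligo carried a promoter, a target, a barcode and the first 104 bridge RNA bases driven by J23119, and was Gibson-cloned into a vector holding the remaining 73 bp and a T7-inducible recombinase before co-electroporation with a donor plasmid. Duplicate platings went onto chloramphenicol/ampicillin LB agar as the control or onto chloramphenicol/ampicillin/kanamycin with 0.1 mM IPTG. Recombination efficiency is the averaged, control-corrected count per million of barcodes at recombinant junctions, given as log10(CPM+1).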
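Also: IS621 recombinase and bridge RNA in Escherichia coli cells.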

Compared with “CCACGAGCTTGGGTTCTAACCTGTTGCGG (site CGACGAGCTCC)”, “CCACGGCCTTGGGTTCTAACCTGTTGCAT (site CCACGGCCTAT)” is higher in “recombinant barcode read abundance (log10)” value: 0.148 for the first, 1.21 for the second.

Going from “CCACGGCCTTGGGTTCTAACCTGTTGCAT (site CCTCGGCCTAT)” to “CCACTACCTTGGGTTCTAACCTGTTGCCT (site CCACTACCTAG)”, the “recombinant barcode read abundance (log10)” value rises from 0 to 0.253.

“CCACTACCTTGGGTTCTAACCTGTTGCCT (site CCACTCCCTAG)” and “CCACTACCTTGGGTTCTAACCTGTTGCCT (site CCACTGCCTAG)” are within 0.2 log units of each other in “recombinant barcode read abundance (log10)” value: 0.0236 for the first, 0.0373 for the second.

Compared with “CCACTACCTTGGGTTCTAACCTGTTGCCT (site CCACTTCCTAG)”, “CCACTGTCTTGGGTTCTAACCTGTTGCCT (site CCACAGTCTAG)” is higher in “recombinant barcode read abundance (log10)” value: 0.0936 for the first, 0.806 for the second.

“CCACTGTCTTGGGTTCTAACCTGTTGCCT (site CCACCGTCTAG)” and “CCACTGTCTTGGGTTCTAACCTGTTGCCT (site CCACGGTCTAG)” are within 0.2 log units of each other in “recombinant barcode read abundance (log10)” value: 0.0386 for the first, 0.0729 for the second.

Going from “CCACTGTCTTGGGTTCTAACCTGTTGCCT (site CCACTGTCTAG)” to “CCAGAGTCTTGGGTTCTAACCTGTTGCCA (site CCAGAGTCTCG)”, the “recombinant barcode read abundance (log10)” value falls from 0.632 to 0.

Going from “CCAGAGTCTTGGGTTCTAACCTGTTGCCA (site CCAGAGTCTTG)” to “CCAGCAGCTTGGGTTCTAACCTGTTGCCT (site CCAGAAGCTAG)”, the “recombinant barcode read abundance (log10)” value falls from 1.22 to 0.0762.

Going from “CCAGCAGCTTGGGTTCTAACCTGTTGCCT (site CCAGCAGCTAG)” to “CCAGCAGCTTGGGTTCTAACCTGTTGCCT (site CCAGGAGCTAG)”, the “recombinant barcode read abundance (log10)” value falls from 0.675 to 0.0858.

First: CCAGCAGCTTGGGTTCTAACCTGTTGCCT (site CCAGTAGCTAG)
Second: CCAGGTCCTTGGGTTCTAACCTGTTGCGT (site CCAGGTCCTAC)
The “recombinant barcode read abundance (log10)” value of the first is lower: 0.76 for the first, 2.45 for the second.

Compared with “CCAGGTCCTTGGGTTCTAACCTGTTGCGT (site CCAGGTCCTAT)”, “CCATACGCTTGGGTTCTAACCTGTTGCCT (site CCATACGCTAG)” is lower in “recombinant barcode read abundance (log10)” value: 1.81 for the first, 0.178 for the second.

“CCATACGCTTGGGTTCTAACCTGTTGCCT (site CGAGACGCTAG)” and “CCATCAACTTGGGTTCTAACCTGTTGCCT (site CCATCAACTAG)” are within 0.2 log units of each other in “recombinant barcode read abundance (log10)” value: 0.189 for the first, 0.0699 for the second.

“CCATCAACTTGGGTTCTAACCTGTTGCCT (site CCATGAACTTG)” and “CCATCTCCTTGGGTTCTAACCTGTTGCCT (site ACATCTCCTAG)” are within 0.2 log units of each other in “recombinant barcode read abundance (log10)” value: 0.0637 for the first, 0.0982 for the second.

Compared with “CCATCTCCTTGGGTTCTAACCTGTTGCCT (site CCATCTCCTAG)”, “CCATCTCCTTGGGTTCTAACCTGTTGCCT (site GCATCTCCTAG)” is lower in “recombinant barcode read abundance (log10)” value: 0.492 for the first, 0.127 for the second.

Going from “CCATCTCCTTGGGTTCTAACCTGTTGCCT (site TCATCTCCTAG)” to “CCGAAGCCTTGGGTTCTAACCTGTTGCCT (site CCGAAGCCTAG)”, the “recombinant barcode read abundance (log10)” value rises from 0.0439 to 1.01.

“CCGAAGCCTTGGGTTCTAACCTGTTGCCT (site CCGCAGCCTAG)” and “CCGAAGCCTTGGGTTCTAACCTGTTGCCT (site CCGGAGCCTAG)” are within 0.2 log units of each other in “recombinant barcode read abundance (log10)” value: 0.256 for the first, 0.144 for the second.

“CCGAAGCCTTGGGTTCTAACCTGTTGCCT (site CCGTAGCCTAG)” and “CCGAATGCTTGGGTTCTAACCTGTTGCCT (site CCGAATGCTAG)” are within 0.2 log units of each other in “recombinant barcode read abundance (log10)” value: 0.143 for the first, 0.188 for the second.

“CCGAATGCTTGGGTTCTAACCTGTTGCCT (site CCGCATGCTAG)” and “CCGAATGCTTGGGTTCTAACCTGTTGCCT (site CCGGATGCTAG)” are within 0.2 log units of each other in “recombinant barcode read abundance (log10)” value: 0.0438 for the first, 0.144 for the second.

First: CCGAATGCTTGGGTTCTAACCTGTTGCCT (site CCGTATGCTAG)
Second: CCGATCACTTGGGTTCTAACCTGTTGCCT (site CCGATCACTAG)
The “recombinant barcode read abundance (log10)” value of the first is lower: 0.155 for the first, 1.14 for the second.

First: CCGATCACTTGGGTTCTAACCTGTTGCCT (site CGTATCACTAG)
Second: CCGCAGACTTGGGTTCTAACCTGTTGCTT (site CCGCAGACTAA)
The “recombinant barcode read abundance (log10)” value of the first is lower: 0.034 for the first, 1.33 for the second.

Going from “CCGCAGACTTGGGTTCTAACCTGTTGCTT (site CCGCGGACTAA)” to “CCGCCCTCTTGGGTTCTAACCTGTTGCTT (site CAGCCCTCTTA)”, the “recombinant barcode read abundance (log10)” value rises from 0.013 to 0.586.

“CCGCCCTCTTGGGTTCTAACCTGTTGCTT (site CCGCCCTCTAA)” and “CCGCGCACTTGGGTTCTAACCTGTTGCCT (site CCGCGCACTAG)” are within 0.2 log units of each other in “recombinant barcode read abundance (log10)” value: 0.291 for the first, 0.397 for the second.

“CCGCGCACTTGGGTTCTAACCTGTTGCCT (site CCGCGCTCTAG)” and “CCGCGTGCTTGGGTTCTAACCTGTTGCCT (site CAGCGTGCTAG)” are within 0.2 log units of each other in “recombinant barcode read abundance (log10)” value: 0.206 for the first, 0.161 for the second.

Going from “CCGCGTGCTTGGGTTCTAACCTGTTGCCT (site CCGCGTGCTAG)” to “CCGCGTGCTTGGGTTCTAACCTGTTGCCT (site CGGCGTGCTAG)”, the “recombinant barcode read abundance (log10)” value rises from 0.0933 to 0.523.

First: CCGCGTGCTTGGGTTCTAACCTGTTGCCT (site CTGCGTGCTAG)
Second: CCGCTACCTTGGGTTCTAACCTGTTGCGG (site CCGCTACCTCC)
The “recombinant barcode read abundance (log10)” value of the first is lower: 0.0444 for the first, 0.474 for the second.

“CCGCTACCTTGGGTTCTAACCTGTTGCGG (site TCGCTAGCTCC)” and “CCGTATGCTTGGGTTCTAACCTGTTGCCT (site CCGAATGCTAG)” are within 0.2 log units of each other in “recombinant barcode read abundance (log10)” value: 0.0965 for the first, 0.234 for the second.

“CCGTATGCTTGGGTTCTAACCTGTTGCCT (site CCGCATGCTAG)” and “CCGTATGCTTGGGTTCTAACCTGTTGCCT (site CCGGATGCTAG)” are within 0.2 log units of each other in “recombinant barcode read abundance (log10)” value: 0.104 for the first, 0.0205 for the second.

“CCGTATGCTTGGGTTCTAACCTGTTGCCT (site CCGTATGCTAG)” and “CCGTCACCTTGGGTTCTAACCTGTTGCCT (site ACGTCACCTAG)” are within 0.2 log units of each other in “recombinant barcode read abundance (log10)” value: 0.168 for the first, 0.264 for the second.

First: CCGTCACCTTGGGTTCTAACCTGTTGCCT (site CCGTCACCTAG)
Second: CCGTCACCTTGGGTTCTAACCTGTTGCCT (site GCGTCACCTAG)
The “recombinant barcode read abundance (log10)” value of the first is higher: 1.29 for the first, 0.0965 for the second.

“CCGTCACCTTGGGTTCTAACCTGTTGCCT (site TCGTCACCTAG)” and “CCGTCCTCTTGGGTTCTAACCTGTTGCTG (site CAGTCCTCTCA)” are within 0.2 log units of each other in “recombinant barcode read abundance (log10)” value: 0.0881 for the first, 0.0234 for the second.

Compared with “CCGTCCTCTTGGGTTCTAACCTGTTGCTG (site CCGTCCTCTCA)”, “CCGTCGACTTGGGTTCTAACCTGTTGCCT (site ACGTCCACTAG)” is lower in “recombinant barcode read abundance (log10)” value: 1.01 for the first, 0.0141 for the second.

“CCGTCGACTTGGGTTCTAACCTGTTGCCT (site CCGTCGACTAG)” and “CCGTCTACTTGGGTTCTAACCTGTTGCTG (site CCGTCTACTAA)” are within 0.2 log units of each other in “recombinant barcode read abundance (log10)” value: 0.197 for the first, 0.019 for the second.

Compared with “CCGTCTACTTGGGTTCTAACCTGTTGCTG (site CCGTCTACTCA)”, “CCGTCTACTTGGGTTCTAACCTGTTGCTG (site CCGTCTACTGA)” is lower in “recombinant barcode read abundance (log10)” value: 0.38 for the first, 0.0602 for the second.

Going from “CCGTCTACTTGGGTTCTAACCTGTTGCTG (site CCGTCTACTTA)” to “CCGTGGACTTGGGTTCTAACCTGTTGCCT (site CCGTGGACTAG)”, the “recombinant barcode read abundance (log10)” value rises from 0.111 to 1.75.

“CCGTGGACTTGGGTTCTAACCTGTTGCCT (site CCGTGGCCTAA)” and “CCTAAGACTTGGGTTCTAACCTGTTGCCG (site CCTAAGACTAG)” are within 0.2 log units of each other in “recombinant barcode read abundance (log10)” value: 0.254 for the first, 0.343 for the second.

“CCTAAGACTTGGGTTCTAACCTGTTGCCG (site CCTAAGACTCG)” and “CCTAAGACTTGGGTTCTAACCTGTTGCCG (site CCTAAGACTGG)” are within 0.2 log units of each other in “recombinant barcode read abundance (log10)” value: 0.263 for the first, 0.148 for the second.

“CCTAAGACTTGGGTTCTAACCTGTTGCCG (site CCTAAGACTTG)” and “CCTAATGCTTGGGTTCTAACCTGTTGCCT (site CCAAAGGCTAG)” are within 0.2 log units of each other in “recombinant barcode read abundance (log10)” value: 0.0897 for the first, 0.0782 for the second.

Going from “CCTAATGCTTGGGTTCTAACCTGTTGCCT (site CCTAATGCTAG)” to “CCTACCGCTTGGGTTCTAACCTGTTGCTT (site CCTACCGCTAA)”, the “recombinant barcode read abundance (log10)” value rises from 0.0345 to 0.424.

First: CCTACCGCTTGGGTTCTAACCTGTTGCTT (site CGTACCGCTAG)
Second: CCTCACTCTTGGGTTCTAACCTGTTGCGG (site CCTCACTCTCC)
The “recombinant barcode read abundance (log10)” value of the first is lower: 0.0456 for the first, 1.66 for the second.

With “CCTCACTCTTGGGTTCTAACCTGTTGCGG (site CCTCAGTCTTC)” the “recombinant barcode read abundance (log10)” value was 0.

From the supplement of paper PMC11208160
